In US5698529A, “Chemotherapeutic compositions” (Supratek Pharma, Inc., priority 1996, dated 1997):
≈ marks a conversion by molar mass, not a printed value. Where two headings read alike, the source gives them in different places.

Experiments:
[1] = test system: human T-lymphoma (Jurkat) cells; assay: IC50 at intervals of drug contact, Jurkat cells, Example 5; type: cell-based
Method: (§1) Measurements are made at the indicated intervals of the drug contact with the cells from 15 minutes to 12 hours.

H-69 cells = assay: Cytotoxic activity of plasma of inoculated mice on H-69 cells; type: cell-based, human; settings: MTD i.v., plasma one hour after administration
Method: (§2) Anti-neoplastic activity is determined by evaluation of the cytotoxic activity of plasma of mammals inoculated with the test composition (see de Valeriola et el., Cancer Chemother. Pharmacol. 29, 133-140, 1991).
(§3) Groups (6 animals/group) of C57B1/6 7-week-old female mice are inoculated i.v. (via the tail vein) with free or micellar (N=1.3) daunorubicin obtained as described in Example 3 {Prep. B and Prep. A, respectively}. Drug concentrations (MTD) are adjusted so that a maximum volume of 0.1 mL is injected in each mouse. The experiment is repeated twice.
(§4) To obtain plasma samples, blood (10 μl) is collected from the tail artery one hour after drug administration, diluted 1:10 with sterile RPMI 1640 medium, and centrifuged at 400 g for 15 minutes. […] The cells are incubated for two hours at 37° C. and 5% CO2, and then washed three times with RPMI 1640. The pretreated cells are incubated in RPMI 1640 supplemented with 10% fetal calf serum at 37° C. and 5% CO2 for three days, after which cytotoxicity is determined as described in Example 1.

SKVLB cells = assay: Cytotoxic activity of plasma of inoculated mice on SKVLB cells; type: cell-based, human
Method: as §2, §3, §4
(§5) The procedure of Example 16 is repeated utilizing SKVLB and SRVO3 cells.

SKVO3 cells = assay: Cytotoxic activity of plasma of inoculated mice on SKVO3 cells; type: cell-based, human
Method: as §2, §3, §4, §5

[2] = test system: human breast cancer (MCF-7); assay: Cytotoxicity against daunorubicin-sensitive human breast cancer (MCF-7); type: cell-based; settings: MCF7
Source text: (§6) The daunorubicin composition of Example 3 {Prep. […] B}.

leukocytes = assay: Leukocyte count (WBS) in mice
Method: Therefore, the leukocyte count during in vivo administration of MTD daunorubicin allows the assessment of the ratio between specific (DNA-intercollation) activity of the drug and non-specific toxicity.
Groups (6 animals/group) of C57B1/6 7-week-old female mice are inoculated i.p. with free of micellar (N=1.3) daunorubicin obtained as described in Example 3 {Prep. B and Prep. A, respectively}. Drug concentrations (MTD) are adjusted so that a maximum volume of 0.5 mL is injected in each mouse. Blood samples are collected and viable leukocytes are counted as described in Michisch et al., Proc. Natl. Acad. Sci. USA 88, 547-551 (1991). The number of WBC after administration of 0.1 mL PBS, 15-16 mln cells/mL, is used as the control. The experiment is repeated twice.
The effects of free and micellar daunorubicin obtained as described in Example 3 {Prep. B and Prep. A, respectively} on leukocyte count are determined three days after administration as described in Example 15.

MTD in mice = settings: mouse, in vivo, ip, C57B1/6 female mice, 14 days
Source text: B and Prep. A, respectively}, and are observed for 14 days.
The MTD is defined as a dose which leads to no daunorubicin-deaths (any higher dose leads to the daunorubicin-related death of at least 1 animal per group). The experiment is repeated twice. The results are reproducible with less that 10% variation.

MCF-7AU = assay: Cytotoxicity against daunorubicin/verapamil-resistant MCF-7AU not expressing P-170; type: cell-based, human
Source text: as §6

[3] = test system: human small cell carcinoma of lung (H-69); assay: Cytotoxicity to human small cell carcinoma of lung (H-69), Example 1; type: cell-based
Method: A. A block copolymer of poly(oxyethylene)-poly(oxypropylene) in which N=0.25 (Pluronic F-68) is diluted with RPMI 1640 medium to a final concentration of 2.0% at 4° C. The mixture is incubated for 30 minutes at 37° C. and then sterilely filtered through a 0.22 μm filter. An equal volume of a solution of 200 μg daunorubicin in RPMI 1640 medium is added and this mixture is incubated for 30 minutes at 37° C.
B. Human ovarian carcinoma cells (CRL157) are precultured in 1% solution of the same block copolymer but without daunorubicin in RPMI 1640 medium supplemented with 10% calf fetal serum. The preparation of part A is added and the mixture is incubated for 60 minutes at 37° C. and the cells then washed three times with RPMI 1640 and cultured in RPMI 1640 supplemented with 10% calf fetal serum for 3 days {Prep. A}. Cytotoxicity is measured, both for this preparation and a parallel preparation of free daunorubicin {Prep. B}, using the method of Alley et al., Cancer Res., 48, 589-601 (1988). The results are as follows:
Following the same procedure, cytotoxicity is determined against human small cell carcinoma of lung (H-69): […]

[4] = test system: normal human mononuclear cells; assay: IC50 at intervals of drug contact, normal mononuclear cells, Example 5; type: cell-based
Method: as §1

[5] = plasma dilution 1:20, 10 mg/kg daunorubicin
[6] = plasma dilution 1:20, MTD of daunorubicin
[7] = plasma dilution 1:200, 10 mg/kg daunorubicin
[8] = plasma dilution 1:200, MTD of daunorubicin
[9] = plasma dilution 1:2000, 10 mg/kg daunorubicin
[10] = plasma dilution 1:2000, MTD of daunorubicin

## COc1cccc2c1C(=O)c1c(O)c3c(c(O)c1C2=O)C[C@@](O)(C(C)=O)C[C@@H]3O[C@H]1C[C@H](N)[C@H](O)[C@H](C)O1 [Prep. B, daunorubicin]
[1]; 0.25 h
  IC50: 0.12 µg/mL (≈ 0.227 µM)
[1]; 0.5 h, drug contact 0.50 hours, read-out: IC50
  IC50: 0.068 µg/mL (≈ 0.129 µM)
[1]; 0.75 h
  IC50: 0.035 µg/mL (≈ 0.0663 µM)
[1]; 1 h
  IC50: 0.025 µg/mL (≈ 0.0474 µM)
[1]; 2 h
  IC50: 0.019 µg/mL (≈ 0.036 µM)
[1]; 4 h
  IC50: 0.016 µg/mL (≈ 0.0303 µM)
[1]; 8 h
  IC50: 0.003 µg/mL (≈ 0.00569 µM)
[1]; 12 h
  IC50: 0.0052 µg/mL (≈ 0.00986 µM)
H-69 cells; plasma dilution 1:20
  Inhibition, %: 42%
H-69 cells; plasma dilution 1:200
  Inhibition, %: 5%
H-69 cells; plasma dilution 1:2000
  Inhibition, %: 0%
H-69 cells; plasma dilution 1:20000
  Inhibition, %: 0%
SKVLB cells; [5]
  Inhibition, %: 8%
SKVLB cells; [6]
  Inhibition, %: 0%
SKVLB cells; [7]
  Inhibition, %: 0%
SKVLB cells; [8]
  Inhibition, %: 0%
SKVLB cells; [9]
  Inhibition, %: 0%
SKVLB cells; [10]
  Inhibition, %: 0%
SKVO3 cells; [5]
  Inhibition, %: 22%
SKVO3 cells; [6]
  Inhibition, %: 9%
SKVO3 cells; [7]
  Inhibition, %: 6%
SKVO3 cells; [8]
  Inhibition, %: 0%
SKVO3 cells; [9]
  Inhibition, %: 0%
SKVO3 cells; [10]
  Inhibition, %: 0%
[2]
  inhibition at 0.016 µg/mL: 15%
  inhibition at 0.08 µg/mL: 43%
  inhibition at 0.4 µg/mL: 69%
  inhibition at 2 µg/mL: 91%
  inhibition at 10 µg/mL: 100%
  inhibition at 50 µg/mL: 100%
leukocytes; day 0, MTD i.p.
  WBS, % of control: 100 % of control
leukocytes; day 3, MTD i.p.
  WBS, % of control: 40 % of control
leukocytes; day 7, MTD i.p.
  WBS, % of control: 60 % of control
leukocytes; day 10, MTD i.p.
  WBS, % of control: 93.8 % of control
leukocytes; day 14, MTD i.p.
  WBS, % of control: 100 % of control
leukocytes; dose 25% of MTD, three days after administration
  WBS, % of control: 78 % of control
leukocytes; dose 50% of MTD, three days after administration
  WBS, % of control: 61 % of control
leukocytes; dose 75% of MTD, three days after administration
  WBS, % of control: 36 % of control
leukocytes; dose 100% of MTD, three days after administration
  WBS, % of control: 39 % of control
MTD in mice
  MTD at 336 h: 2 mg/kg
MCF-7AU; Homo sapiens
  inhibition at 0.016 µg/mL: 3%
  inhibition at 0.08 µg/mL: 9%
  inhibition at 0.4 µg/mL: 37%
  inhibition at 2 µg/mL: 65%
  inhibition at 10 µg/mL: 89%
  inhibition at 50 µg/mL: 100%
MCF-7AU; resistant line MCF-7AU, statement for both resistant lines
  IC50 (in words): higher IC50 's (is less toxic)
[3]
  inhibition at 0.0032 µg/mL: 20%
  inhibition at 0.016 µg/mL: 42%
  inhibition at 0.08 µg/mL: 69%
  inhibition at 0.4 µg/mL: 91%
  inhibition at 2 µg/mL: 100%
  inhibition at 10 µg/mL: 100%
  inhibition at 50 µg/mL: 100%
[4]; 0.25 h
  IC50: 4.9 µg/mL (≈ 9.29 µM)
[4]; 0.5 h
  IC50: 0.98 µg/mL (≈ 1.86 µM)
[4]; 0.75 h
  IC50: 0.405 µg/mL (≈ 0.768 µM)
[4]; 1 h
  IC50: 0.31 µg/mL (≈ 0.588 µM)
[4]; 2 h
  IC50: 0.29 µg/mL (≈ 0.55 µM)
[4]; 4 h
  IC50: 0.275 µg/mL (≈ 0.521 µM)
[4]; 8 h
  IC50: 0.28 µg/mL (≈ 0.531 µM)
[4]; 12 h
  IC50: 0.24 µg/mL (≈ 0.455 µM)
